Like-named read-outs stand apart in the source and are kept apart here.

In assay [1] the test system is FoxO3a. Description: FoxO3a inhibition: GFP-FoxO3a nuclear to cytoplasmic translocation reporter assay. It is filed as cell-based. The following applies: U2OS GFP-FoxO3a H212R cells, serum starved overnight, compound 30 minutes, ratio of nuclear to cytosolic GFP intensity, DMSO control 0%, read-out: FoxO AC50. The method in brief: (§1)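 Serum-starved U2OS cells expressing GFP-FoxO3a H212R treated with compounds 30 min, fixed, imaged. FoxO3a: nuclear/cytosolic GFP ratio, %. AKT: total cellular phospho-AKT (Ser473) antibody staining intensity, %. DMSO set as 0% activity.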
Background: In a reporter assay the amount or activity of a reporter protein is the signal.

In assay [2] the test system is AKT. Description: AKT activation: Phospho-AKT (Ser473) antibody staining in reporter cells. It is filed as cell-based. To be noted: U2OS GFP-FoxO3a H212R cells, serum starved overnight, compound 30 minutes, total cellular intensity of Phospho-AKT (Ser473) staining, DMSO control 0%. Put shortly: as §1

`Cc1cc(C(N)=O)nn1-c1ccc2c(ccn2Cc2ccc(-c3ccc4[nH]ncc4c3)cc2)c1` [Example 1-17, 1-(1-(4-(1H-indazol-5-yl)benzyl)-1H-indol-5-yl)-5-methyl-1H-pyrazole-3-carboxamide]: the concentration at half-maximal activity (AC50) (commonly the concentration at which the activity in the assay is half-maximal) in assay [1] (Homo sapiens, U2OS, 0.5 h) was found to be 0.088 µM; in assay [2] (Homo sapiens, U2OS, 0.5 h) it was 0.199 µM.
For `Cc1cc(C(N)=O)nn1-c1ccc2c(ccn2Cc2ccc(-c3ccc(S(=O)(=O)CCN4CCN(C)CC4)cc3)cc2)c1` [Example 19, 5-methyl-1-(1-((4′-((2-(4-methylpiperazin-1-yl)ethyl)sulfonyl)-[1,1′-biphenyl]-4-yl)methyl)-1H-indol-5-yl)-1H-pyrazole-3-carboxamide], in that order: 0.061 µM and 0.142 µM.
As for `Cc1cc(C(N)=O)nn1-c1ccc2c(ccn2Cc2ccc(C3=CCCN(C)C3)cc2)c1` [Example 1-8, 5-methyl-1-(1-(4-(1-methyl-1,2,5,6-tetrahydropyridin-3-yl)benzyl)-1H-indol-5-yl)-1H-pyrazole-3-carboxamide], the AC50 is 0.517 µM in assay [1] (Homo sapiens, U2OS, 0.5 h) and more than 10 µM in assay [2] (Homo sapiens, U2OS, 0.5 h).
With `Cc1cc(C(N)=O)nn1-c1ccc2c(ccn2Cc2ccc(-c3ccc(N)cc3)cc2)c1` [Example 1-26, 1-(1-((4′-amino-[1,1′-biphenyl]-4-yl)methyl)-1H-indol-5-yl)-5-methyl-1H-pyrazole-3-carboxamide], the AC50 was 0.129 µM in assay [1] (Homo sapiens, U2OS, 0.5 h) and more than 10 µM in assay [2] (Homo sapiens, U2OS, 0.5 h).
Taken in the same sequence, the figures for `Cc1cc(C(N)=O)nn1-c1ccc2c(ccn2Cc2ccc([C@@H]3C[C@@H]4CN(C)C[C@@H]4C3)cc2)c1` [Example 26-1, 5-methyl-1-(1-(4-((3aR,5r,6aS)-2-methyloctahydrocyclopenta[c]pyrrol-5-yl)benzyl)-1H-indol-5-yl)-1H-pyrazole-3-carboxamide] were 0.095 µM and 0.314 µM.
Consider `Cc1cc(C(N)=O)nn1-c1ccc2c(ccn2Cc2ccc([C@@H]3C[C@@H]4CN(S(C)(=O)=O)C[C@@H]4C3)cc2)c1` [Example 41, 5-methyl-1-(1-(4-((3aR,5r,6aS)-2-(methylsulfonyl)octahydrocyclopenta[c]pyrrol-5-yl)benzyl)-1H-indol-5-yl)-1H-pyrazole-3-carboxamide], for which the AC50 in assay [1] (Homo sapiens, U2OS, 0.5 h) is 0.113 µM; in assay [2] (Homo sapiens, U2OS, 0.5 h) it was 0.304 µM.
Taken in the same sequence, the figures for `Cc1cc(C(N)=O)nn1-c1ccc2c(ccn2Cc2ccc(-c3ccc(NS(C)(=O)=O)cc3)cc2)c1` [Example 1-33, 5-methyl-1-(1-((4′-(methylsulfonamido)-[1,1′-biphenyl]-4-yl)methyl)-1H-indol-5-yl)-1H-pyrazole-3-carboxamide] were 0.082 µM and 0.351 µM.
`Cc1cc(C(N)=O)nn1-c1ccc2c(ccn2Cc2ccc(-c3ccc(CN)cc3)cc2)c1` [Example 1-34, 1-(1-((4′-(aminomethyl)-[1,1′-biphenyl]-4-yl)methyl)-1H-indol-5-yl)-5-methyl-1H-pyrazole-3-carboxamide]: the AC50 in assay [1] (Homo sapiens, U2OS, 0.5 h) stood at 0.248 µM; in assay [2] (Homo sapiens, U2OS, 0.5 h), 0.743 µM.
Turning to `Cc1cc(C(N)=O)nn1-c1ccc2c(ccn2Cc2ccc(C3=CCNCC3)cc2)c1` [Example 3, 5-methyl-1-(1-(4-(1,2,3,6-tetrahydropyridin-4-yl)benzyl)-1H-indol-5-yl)-1H-pyrazole-3-carboxamide], the concentration at half-maximal activity (AC50) was determined as 0.476 µM in assay [1] (Homo sapiens, U2OS, 0.5 h) and 1.17 µM in assay [2] (Homo sapiens, U2OS, 0.5 h).
As for `Cc1cc(C(N)=O)nn1-c1ccc2c(ccn2Cc2ccc(-c3cccc(C(=O)N4CCN(C)CC4)c3)cc2)c1` [Example 1-12, 5-methyl-1-(1-((3′-(4-methylpiperazine-1-carbonyl)-[1,1′-biphenyl]-4-yl)methyl)-1H-indol-5-yl)-1H-pyrazole-3-carboxamide], the AC50 in assay [1] (Homo sapiens, U2OS, 0.5 h) is 0.124 µM; in assay [2] (Homo sapiens, U2OS, 0.5 h) it was 0.346 µM.
Regarding `Cc1cc(C(N)=O)nn1-c1ccc2c(ccn2Cc2ccc(C3CCN(C)CC3(C)C)cc2)c1` (stereo not shown) [Example 16-1, 5-methyl-1-(1-(4-(1,3,3-trimethylpiperidin-4-yl)benzyl)-1H-indol-5-yl)-1H-pyrazole-3-carboxamide], the AC50 in assay [1] (Homo sapiens, U2OS, 0.5 h) was determined as 0.171 µM; in assay [2] (Homo sapiens, U2OS, 0.5 h) it was 0.966 µM.
Taken in the same sequence, the figures for `Cc1cc(C(N)=O)nn1-c1ccc2c(ccn2Cc2ccc(-c3ccc(C(=O)N4CCN(C)CC4)cc3)cc2)c1` [Example 36, 5-methyl-1-(1-((4′-(4-methylpiperazine-1-carbonyl)-[1,1′-biphenyl]-4-yl)methyl)-1H-indol-5-yl)-1H-pyrazole-3-carboxamide] were 0.049 µM and 0.039 µM.
With `Cc1cc(C(N)=O)nn1-c1ccc2c(c1)c(C1=CCOCC1)cn2Cc1ccc(-c2ccc(S(C)(=O)=O)cc2)cc1` [Example 19-1, 1-(3-(3,6-dihydro-2H-pyran-4-yl)-1-((4′-(methylsulfonyl)-[1,1′-biphenyl]-4-yl)methyl)-1H-indol-5-yl)-5-methyl-1H-pyrazole-3-carboxamide], the concentration at half-maximal activity (AC50) was 0.052 µM in assay [1] (Homo sapiens, U2OS, 0.5 h) and 0.081 µM in assay [2] (Homo sapiens, U2OS, 0.5 h).
Regarding `Cc1cc(C(N)=O)nn1-c1ccc2c(ccn2Cc2ccc(-c3ccc(C(C)(C)O)cn3)cc2)c1` [Example 30-2, 1-(1-(4-(5-(2-hydroxypropan-2-yl)pyridin-2-yl)benzyl)-1H-indol-5-yl)-5-methyl-1H-pyrazole-3-carboxamide], the AC50 is 0.223 µM in assay [1] (Homo sapiens, U2OS, 0.5 h) and 0.32 µM in assay [2] (Homo sapiens, U2OS, 0.5 h).
`Cc1cc(C(N)=O)nn1-c1ccc2c(ccn2Cc2ccc(-c3ccc(CO)cc3)cc2)c1` [Example 1-32, 1-(1-((4′-(hydroxymethyl)-[1,1′-biphenyl]-4-yl)methyl)-1H-indol-5-yl)-5-methyl-1H-pyrazole-3-carboxamide]: the AC50 turned out to be 0.205 µM in assay [1] (Homo sapiens, U2OS, 0.5 h) and 0.578 µM in assay [2] (Homo sapiens, U2OS, 0.5 h).
As to `Cc1cc(C(N)=O)nn1-c1ccc2c(ccn2Cc2ccc([C@@H]3C[C@@H]4CN(CC5CC5)C[C@@H]4C3)cc2)c1` [Example 40, 1-(1-(4-((3aR,5r,6aS)-2-(cyclopropylmethyl)octahydrocyclopenta[c]pyrrol-5-yl)benzyl)-1H-indol-5-yl)-5-methyl-1H-pyrazole-3-carboxamide], the AC50 in assay [1] (Homo sapiens, U2OS, 0.5 h) was 0.161 µM; in assay [2] (Homo sapiens, U2OS, 0.5 h) it was 1.22 µM.
Take `Cc1cc(C(N)=O)nn1-c1ccc2c(ccn2Cc2ccc(C3CCN(C)CC3(C)C)cc2)c1` (single isomer, unassigned) [Example 16-2, 5-methyl-1-(1-(4-(1,3,3-trimethylpiperidin-4-yl)benzyl)-1H-indol-5-yl)-1H-pyrazole-3-carboxamide]: the values for the half-maximal activity concentration (AC50) in assay [1] and in assay [2] were 0.161 µM and 1.22 µM, respectively.

These data come from patent publication US10654828B2 (NOVARTIS AG, priority 2017, dated 2020).
